These are literature values, as cited in patent US12083078B2, “Parenteral cannabinoid formulations and uses thereof” (priority 2020, dated 2024).

The conditions of the series: buffering pH range.

With `O=P(O)(O)O` [Sodium Phosphate], the pH range is reported as 8-8.

Take `CC(=O)O` [Acetic Acid]: the pH range was 4-6.

As to `CC(O)C(=O)O` (stereo not shown) [Lactic Acid], the pH range is 3-4.5.

For the molecule `O=C(O)CC(O)(CC(=O)O)C(=O)O` [Citric Acid], the pH range is 3-7.
